Assay results from patent publication US7541353B2, “Compounds for the treatment of hepatitis C” (Bristol-Myers Squibb Company, priority 2007, dated 2009).
Read-outs that look alike come from different tables or passages of the source.

What was measured:
[1] = tested on: HCV replicon cells; assay: HCV replicon FRET assay; type: cell-based
Protocol: FRET Assay Preparation. The HCV FRET screening assay was performed in 96-well cell culture plates. The FRET peptide (Anaspec, Inc.) (Taliani et al., Anal. Biochem. 1996, 240, 60-67) contains a fluorescence donor, EDANS, near one end of the peptide and an acceptor, DABCYL, near the other end. The fluorescence of the peptide is quenched by […] resonance energy transfer (RET) between the donor and the acceptor, but as the NS3 protease cleaves the peptide the products are released from RET quenching and the fluorescence of the donor becomes apparent. The assay reagent was made as follows: 5× cell Luciferase cell culture lysis reagent from Promega (#E153A) diluted to 1× with dH2O, NaCl added to 150 mM final, the FRET peptide diluted to 20 μM final from a 2 mM stock.
To prepare plates, HCV replicon cells, with or without a Renilla luciferase reporter gene, were trypsinized and plated in a 96-well plate with titrated test compounds added in columns 3 through 12; columns 1 and 2 contained a control compound (HCV control inhibitor), and the bottom row contained cells with DMSO only. The plates were then placed in a CO2 incubator at 37° C.
Assays. Subsequent to addition of the test compounds described above (FRET Assay Preparation), at various times the plate was removed and Alamar blue solution (Trek Diagnostics, #00-100) was added to measure cellular toxicity. After reading in a Cytoflour 4000 instrument (PE Biosystems), plates were rinsed with PBS and then used for FRET assay by the addition of 30 ul of the FRET peptide assay reagent described above (FRET Assay Preparation) per well. The plate was then placed into the Cytoflour 4000 instrument which had been set to 340 excite/490 emission, automatic mode for up to 20 cycles and the plate read in a kinetic mode. Typically, the signal to noise using an endpoint analysis after the reads was at least three-fold. Alternatively, after Alamar blue reading, plates were rinsed with PBS, then used for luciferase assay using the Promega Dual-Glo Luciferase Assay System or the Promega EnduRen Live Cell Substrate assay.
Compound analysis was performed by quantification of the relative HCV replicon inhibition and the relative cytotoxicity values. To calculate cytoxicity values, the average Alamar Blue fluorescence signals from the control wells were set as 100% non-toxic. The individual signals in each of the compound test wells were then divided by the average control signal and multiplied by 100% to determine […]. To calculate the HCV replicon inhibition values, an average background value was obtained from the two wells containing the highest amount of HCV control inhibitor at the end of the assay period. These numbers were similar to those obtained from naïve Huh-7 cells. The background numbers were then subtracted from the average signal obtained from the control wells and this number was used as 100% activity. The individual signals in each of the compound test wells were then divided by the averaged control values after background subtraction and multiplied by 100% to determine percent activity. EC50 values were calculated as the concentration which caused a 50% reduction in FRET or luciferase activity. The two numbers generated for the compound plate, percent cytoxicity and percent activity, were used to determine compounds of interest for further analysis.

[2] = biological target: T1, HCV NS5B (Hepatitis C virus genotype 1b, UniProt Q9WMX2); assay: Modified HCV NS5B RdRp enzyme assay (preincubation protocol); type: biochemical
T1 construct: The cDNA encoding the NS5B protein of HCV, genotype 1b; made in house; host or cells: E. coli BL21(DE3)
T1 sequence (Q9WMX2 2420-2992): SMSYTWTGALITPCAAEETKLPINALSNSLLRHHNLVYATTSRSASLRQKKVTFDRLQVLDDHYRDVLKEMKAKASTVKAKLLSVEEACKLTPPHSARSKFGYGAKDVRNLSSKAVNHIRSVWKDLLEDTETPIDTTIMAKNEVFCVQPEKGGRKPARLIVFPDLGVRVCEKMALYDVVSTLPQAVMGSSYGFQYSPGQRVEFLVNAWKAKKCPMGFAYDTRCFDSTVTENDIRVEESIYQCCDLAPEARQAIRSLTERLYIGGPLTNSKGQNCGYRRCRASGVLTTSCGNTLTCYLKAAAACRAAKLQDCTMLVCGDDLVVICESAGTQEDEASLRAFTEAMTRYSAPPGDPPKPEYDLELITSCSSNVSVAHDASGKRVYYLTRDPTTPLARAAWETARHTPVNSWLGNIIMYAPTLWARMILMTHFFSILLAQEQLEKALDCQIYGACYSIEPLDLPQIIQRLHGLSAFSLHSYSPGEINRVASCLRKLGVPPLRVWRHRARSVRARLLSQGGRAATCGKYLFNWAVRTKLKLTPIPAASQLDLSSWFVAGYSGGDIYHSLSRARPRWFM
Protocol: HCV NS5B RdRp cloning, expression, and purification. The cDNA encoding the NS5B protein of HCV, genotype 1b, was cloned into the pET21a expression vector. The protein was expressed with an 18 amino acid C-terminal truncation to enhance the solubility. The E. coli competent cell line BL21(DE3) was used for expression of the protein. Cultures were grown at 37° C. for ˜4 hours until the cultures reached an optical density of 2.0 at 600 nm. The cultures were cooled to 20° C. and induced with 1 mM IPTG. Fresh ampicillin was added to a final concentration of 50 μg/ml and the cells were grown overnight at 20° C.
Cell pellets (3L) were lysed for purification to yield 15-24 mgs of purified NS5B. The lysis buffer consisted of 20 mM Tris-HCl, pH 7.4, 500 mM NaCl, 0.5% triton X-100, 1 mM DTT, 1 mM EDTA, 20% glycerol, 0.5 mg/ml lysozyme, 10 mM MgCl2, 15 ug/ml deoxyribonuclease I, and Complete™ protease inhibitor tablets (Roche). After addition of the lysis buffer, frozen cell pellets were resuspended using a tissue homogenizer. To reduce the viscosity of the sample, aliquots of the lysate were sonicated on ice using a microtip attached to a Branson sonicator. The sonicated lysate was centrifuged at 100,000×g for 1 hr at 4° C. and filtered through a 0.2 μm filter unit (Corning).
The protein was purified using two sequential chromatography steps: Heparin sepharose CL-6B and polyU sepharose 4B (Pharmacia). The chromatography buffers were identical to the lysis buffer but contained no lysozyme, deoxyribonuclease I, MgCl2 or protease inhibitor and the NaCl concentration of the buffer was adjusted according to the requirements for charging the protein onto the column. Each column was eluted with a NaCl gradient which varied in length from 5-50 column volumes depending on the column type. After the final chromatography step, the resulting purity of the enzyme is >90% based on SDS-PAGE analysis. The enzyme was aliquoted and stored at −80° C.
Standard HCV NS5B RdRp enzyme assay. HCV RdRp genotype 1b assays were run in a final volume of 60 μl in 96 well plates (Corning 3600). The assay buffer is composed of 20 mM Hepes, pH 7.5, 2.5 mM KCl, 2.5 mM MgCl2, 1 mM DTT, 1.6 U RNAse inhibitor (Promega N2515), 0.01 mg/ml BSA (Sigma B6917), and 2% glycerol. All compounds were serially diluted (3-fold) in DMSO and diluted further in water such that the final concentration of DMSO in the assay was 2%. HCV RdRp genotype 1b enzyme was used at a final concentration of 28 nM. A polyA template was used at 6 nM, and a biotinylated oligo-dT12 primer was used at 180 nM final concentration. Template was obtained commercially (Amersham 27-4110). Biotinylated primer was prepared by Sigma Genosys. 3H-UTP was used at 0.6 μCi (0.29 μM total UTP). Reactions were initiated by the addition of enzyme, incubated at 30° C. for 60 min, and stopped by adding 25 μl of 50 mM EDTA containing SPA beads (4 μg/μl, Amersham RPNQ 0007). Plates were read on a Packard Top Count NXT after >1 hr incubation at room temperature.
Modified HCV NS5B RdRp enzyme assay. A modified enzyme assay was performed essentially as described for the standard enzyme assay except for the following: The biotinylated oligo dT12 primer was precaptured on streptavidin-coated SPA beads by mixing primer and beads in assay buffer and incubating at room temperature for one hour. Unbound primer was removed after centrifugation. The primer-bound beads were resuspended in 20 mM Hepes buffer, pH 7.5 and used in the assay at final concentrations of 20 nM primer and 0.67 μg/μl beads. Order of addition in the assay: enzyme (1.75 nM) was added to diluted compound followed by the addition of a mixture of template (0.36 nM), 3H-UTP (0.6 μCi, 0.29 μM), and primer-bound beads, to initiate the reaction; concentrations given are final. Reactions were allowed to proceed for 4 hours at 30° C.
IC50 values for compounds were determined using seven different [I]. […]

| SMILES | EC50 ([1]; Hepatitis C virus) [nM] | IC50 [2] [nM] | EC50 ([1]; FRET assay) [nM] | IC50 ([2]; preincubation protocol) [nM] |
| --- | --- | --- | --- | --- |
| COc1ccc2c(c1)[C@@H]1C[C@]1(C(=O)N1C3COCC1COC3)Cn1c-2c(C2CCCCC2)c2ccc(C(=O)NS(=O)(=O)N(C)C)cc21 | 4.58 to 500 | 4.58 to 500 |  |  |
| COc1ccc2c(c1)[C@@H]1C[C@]1(C(=O)N1C3CCC(O)C1CCC3O)Cn1c-2c(C2CCCCC2)c2ccc(C(=O)NS(=O)(=O)N(C)C)cc21 (stereo partly shown) | 4.58 to 500 | 4.58 to 500 |  |  |
| COc1ccc2c(c1)C1CC1(C(=O)N1C3COCC1COC3)Cn1c-2c(C2CCCCC2)c2ccc(C(=O)NS(=O)(=O)C(C)C)cc21 (stereo not shown) | 4.58 to 500 | 4.58 to 500 |  |  |
| CCC(C)S(=O)(=O)NC(=O)c1ccc2c(C3CCCCC3)c3n(c2c1)CC1(C(=O)N2C4CCC[C@@H]2COC4)CC1c1cc(OC)ccc1-3 (stereo partly shown) | 4.58 to 500 | 4.58 to 500 |  |  |
| COc1ccc2c(c1)C1CC1(C(=O)N1C3COCC1COC3)Cn1c-2c(C2CCCCC2)c2ccc(C(=O)NS(=O)(=O)CC(C)C)cc21 (stereo not shown) | 4.58 to 500 | 4.58 to 500 |  |  |
| COc1ccc2c(c1)C1CC1(C(=O)N1C3CCC[C@@H]1COC3)Cn1c-2c(C2CCCCC2)c2ccc(C(=O)NS(=O)(=O)CC(C)C)cc21 (stereo partly shown) | 4.58 to 500 | 4.58 to 500 |  |  |
| COc1ccc2c(c1)C1CC1(C(=O)N1C3CCC1CC(NCC1CC1)C3)Cn1c-2c(C2CCCCC2)c2ccc(C(=O)NS(=O)(=O)N(C)C)cc21 (stereo not shown) [drawing 23] | 4.58 to 500 | 4.58 to 500 |  |  |
| COc1ccc2c(c1)C1CC1(C(=O)N1C3CCC1CC(NCC1CC1)C3)Cn1c-2c(C2CCCCC2)c2ccc(C(=O)NS(=O)(=O)N(C)C)cc21 (stereo not shown) [drawing 26] |  |  | 4.58 to 500 | 4.58 to 500 |
| CNC1CC2CCC(C1)N2C(=O)C12CC1c1cc(OC)ccc1-c1c(C3CCCCC3)c3ccc(C(=O)NS(=O)(=O)N(C)C)cc3n1C2 (stereo not shown) [drawing 28] | 4.58 to 500 | 4.58 to 500 |  |  |
| CNC1CC2CCC(C1)N2C(=O)C12CC1c1cc(OC)ccc1-c1c(C3CCCCC3)c3ccc(C(=O)NS(=O)(=O)N(C)C)cc3n1C2 (stereo not shown) [drawing 29] |  |  | 4.58 to 500 | 4.58 to 500 |
| COc1ccc2c(c1)C1CC1(C(=O)N1C3CCC1CC(N(C)Cc1ccccc1)C3)Cn1c-2c(C2CCCCC2)c2ccc(C(=O)NS(=O)(=O)C(C)C)cc21 (stereo not shown) [drawing 36] | 4.58 to 500 | 4.58 to 500 |  |  |
| COc1ccc2c(c1)[C@@H]1C[C@]1(C(=O)N1C3CCC1CC(C)(O)C3)Cn1c-2c(C2CCCCC2)c2ccc(C(=O)NS(=O)(=O)N(C)C)cc21 (stereo partly shown) [drawing 46] | 4.58 to 500 | 4.58 to 500 |  |  |
| COc1ccc2c(c1)[C@@H]1C[C@]1(C(=O)N1C3CCC1CC(C)(O)C3)Cn1c-2c(C2CCCCC2)c2ccc(C(=O)NS(=O)(=O)N(C)C)cc21 (stereo partly shown) [drawing 47] |  |  | 4.58 to 500 | 4.58 to 500 |
| COc1ccc2c(c1)C1CC1(C(=O)N1C3CCCC1COC3)Cn1c-2c(C2CCCCC2)c2ccc(C(=O)NS(=O)(=O)C3CCCCC3)cc21 (stereo not shown) [drawing 54] |  |  | 4.58 to 500 | 4.58 to 500 |
